Results taken from ChEMBL document CHEMBL3244322, “5-O-Alkylated derivatives of 5-hydroxy-2'-deoxyuridine as potential antiviral agents. Anti-herpes activity of 5-propynyloxy-2'-deoxyuridine” (J Med Chem, 1978).
≈ marks a conversion by molar mass, not a printed value.

system: Vaccinia virus; assay: Antiviral activity against Vaccinia virus infected in primary rabbit kidney cells assessed as inhibition of virus-induced cytopathogenicity; format: functional; conditions: Orthopoxvirus vaccinia

Point of comparison: `NC(=O)COc1cn([C@H]2C[C@H](O)[C@@H](CO)O2)c(=O)[nH]c1=O`, MIC 130 µM (≈ 39.2 µg/mL). Against it:
- O=c1[nH]c(=O)n([C@H]2C[C@H](O)[C@@H](CO)O2)cc1O — 9.3-fold lower, 14 µM (≈ 3.42 µg/mL)
- C#CCOc1cn([C@H]2C[C@H](O)[C@@H](CO)O2)c(=O)[nH]c1=O — 3.7-fold lower, 35 µM (≈ 9.88 µg/mL)
- C=CCOc1cn([C@@H]2O[C@H](CO)[C@@H](O)[C@H]2O)c(=O)[nH]c1=O — higher, > 600 µM
- C=CCOc1cn([C@H]2C[C@H](O)[C@@H](CO)O2)c(=O)[nH]c1=O — 1.9-fold lower, 70 µM (≈ 19.9 µg/mL)
- O=c1[nH]c(=O)n([C@@H]2O[C@H](CO)[C@@H](O)[C@H]2O)cc1OCc1ccccc1 — higher, > 600 µM
- O=c1[nH]c(=O)n([C@H]2C[C@H](O)[C@@H](CO)O2)cc1OCc1ccccc1 — higher, > 300 µM
- O=c1[nH]c(=O)n([C@@H]2O[C@H](CO)[C@@H](O)[C@H]2O)cc1OCc1ccc([N+](=O)[O-])cc1 — higher, > 600 µM
- O=c1[nH]c(=O)n([C@H]2C[C@H](O)[C@@H](CO)O2)cc1OCc1ccc([N+](=O)[O-])cc1 — higher, > 260 µM
- Cc1ccc(COc2cn([C@@H]3O[C@H](CO)[C@@H](O)[C@H]3O)c(=O)[nH]c2=O)cc1 — higher, > 600 µM
- NC(=O)COc1cn([C@@H]2O[C@H](CO)[C@@H](O)[C@H]2O)c(=O)[nH]c1=O — higher, > 600 µM
- O=C(O)COc1cn([C@H]2C[C@H](O)[C@@H](CO)O2)c(=O)[nH]c1=O — higher, > 600 µM
- O=c1[nH]c(=O)n([C@H]2C[C@H](O)[C@@H](CO)O2)cc1I [IDOXURIDINE] — 93-fold lower, 1.4 µM (≈ 0.496 µg/mL)
- Nc1ncnc2c1ncn2[C@@H]1O[C@H](CO)[C@@H](O)[C@@H]1O [VIDARABINE] — 93-fold lower, 1.4 µM (≈ 0.374 µg/mL)
